Data from US6869593B2, “Non-isotopic detection of osteoblastic activity in vivo using modified bisphosphonates” (Beth Israel Deaconess Medical Center, priority 2000, dated 2005).

What was measured:
[1] = rats; cited from earlier work
[2] = Competition of Pam78 binding to HA by unlabeled pamidronate; details: 80 nmol (800 μM) unlabeled pamidronate; 2.5 μM Pam78; 1.5 mg/ml HA; three hours
Description: For competition experiments, free pamidronate was pre-incubated in 100 μl NK buffer with 1.5 mg/ml (1.5 mM) HA for five minutes at room temperature with continuous vortexing. Pam78 was then added from a 20× stock solution to a final concentration of 2.5 μM. Incubation at 37° C. with continuous vortexing continued for three hours prior to filtration and measurement as described above.

[3] = Kinetic binding to hydroxyapatite crystals; details: 5 μM compound, 37° C.
Description: In Vitro Hydroxyapatite Binding Experiments. For kinetic measurements of binding to HA, 5 μM Pam78 or the carboxylic acid of IRDye78 was added from a 20× stock solution to 100 μl NK buffer containing 1.5 mg/ml (1.5 mM) HA. Suspensions were continuously vortexed at 37° C. for the time indicated. Bound and unbound material was separated using a 0.2 μm filter in a 96-well format (Model MAGVN2210, Millipore, Bedford, Mass.), and the concentration of material in the filtrate was measured using the SPECTRAmax Gemini XS fluorescence microplate reader set for an excitation wavelength of 771 nm and an emission wavelength of 796 nm. Bound material was calculated by subtracting unbound compound from the total added to each reaction.

[4] = Spectral measurements (absorbance, fluorescence); type: physicochemical
Description: Spectral Measurements. Absorbance measurements and scans were performed on a Model DU-600 spectrophotometer (Beckman, Fullerton, Calif.) using 1 μM of each compound in 20 mM N-ethylmorpholine (NEM), pH 7.4 and 150 mM KCl (NK buffer). Fluorescence measurements, and excitation/emission scans were performed on a SPECTRAmax Gemini XS microplate reader (Molecular Devices, Sunnyvale, Calif.) using Model 655076 black 96-well plates (Greiner, Lake Mary, Fla.), and […] of each compound in NK buffer. Curves were analyzed using SOFTmax PRO software (Molecular Devices, Sunnyvale, Calif.) and plotted using Prism3 for the Macintosh (GraphPad Software, Inc., San Diego, Calif.).

[5] = In vivo near-infrared fluorescence imaging of HA
Description: Compound Injection and Measurement of Serum Concentration. Hairless 7 week old male nu/nu mice (Charles River Laboratories, Wilmington, Mass.; average weight 25 g) were anesthetized with 50 mg/kg i.p. pentobarbital. The lateral tail vein was visualized using a flashlight and 2.6 nmol of compound resuspended in 80 μl of phosphate buffered saline (PBS) was injected using a bent, 30 gauge, ½″ needle.

[6] = Quantitation of skeletal uptake by rib fluorescence intensity
Description: However, we were able to estimate skeletal uptake by measuring fluorescence intensity of the ribs in the skinless animal. Calibration standards matching the geometry of the ribs were placed next to the animal and mean fluorescence intensities of each standard and the caudal three ribs on each side were measured.

[7] = Serum concentration after intravenous injection (plasma elimination); details: 2.6 nmol intravenous, tail vein
Description: Hairless 7 week old male nu/nu mice (Charles River Laboratories, Wilmington, Mass.; average weight 25 g) were anesthetized with 50 mg/kg i.p. pentobarbital. The lateral tail vein was visualized using a flashlight and 2.6 nmol of compound resuspended in 80 μl of phosphate buffered saline (PBS) was injected using a bent, 30 gauge, ½″ needle. For measurement of plasma concentration, the tip of the tail of an anesthetized animal was cut with a razor blade, and 75 μl of whole blood was milked, and collected with a capillary tube. After clotting and removal of cells by centrifugation, serum was diluted 1:10 in 50 mM Hepes, pH 7.4 and a wavelength scan from 400 nm to 850 nm was performed. Serum concentration was determined by peak height at 771 nm after subtraction of background (pre-injection serum), and correction for hemoglobin absorbance.

For `O.O.O=P([O-])([O-])CP(=O)([O-])[O-].[99Tc+4]` [^99mTc-MDP], the skeletal uptake [1] is listed as 52%.

In the case of `NCCC(O)(P(=O)(O)O)P(=O)(O)O` [pamidronate], the “inhibition of Pam78 binding to HA” value [2] is reported as 90%.

In the case of `CC1(C)C(/C=C/C2=C(Oc3ccc(CCC(=O)NCCC(O)(P(=O)([O-])O)P(=O)(O)O)cc3)C(=C\C=C3/N(CCCCS(=O)(=O)O)c4ccc(S(=O)(=O)O)cc4C3(C)C)/CCC2)=[N+](CCCCS(=O)(=O)O)c2ccc(S(=O)(=O)O)cc21` (centres unmarked) [Pam78], the “time to asymptotic binding to HA” value ([3]; 1.5 mg/ml HA) is reported as no more than 1 h, the “percent of peak binding to HA achieved” value ([3]; five minutes, 1.5 mg/ml (1.5 mM) HA, NK buffer) is reported as 37% and the peak absorption ([4]; 1 μM in NK buffer) is reported as “unchanged from IRDye78”. The peak emission ([4]; excitation fixed at 771 nm, NK buffer) was 796 nm, the “time at which uptake in spine, ribs, paws and knees is detected above background” value ([5]; 2.6 nmol intravenous) was 15 min and the “time by which phalanges, wrist, skull, pelvis, femur and ankle become visible” value ([5]; 2.6 nmol intravenous) was no more than 3 h. For the same compound, the “stability in vivo (skeletal signal)” value ([5]; twelve hours post-injection) was “no degradation of skeletal signal”, the “concentration in ribs (mean±S.E.M.)” value ([6]; caudal three ribs on each side, skinless animal, 2.6 nmol injected) was 910 ± 27 nM and the “skeletal uptake, percentage of injected dose” value ([6]; out of 2.6 nmol injected) was 57%. The “amount bound to the skeleton” value ([6]; out of 2.6 nmol injected, assuming bone density 1.8 g/cm^3, skeletal weight 11.8% body weight) was 1.5 nmol, the “early half-life of elimination from plasma” value [7] was 5.0 min and the “late half-life of elimination from plasma” value [7] was 15.4 min.
